Patent publication US4591637A, “Open chain-morpholino adriamycins” (priority 1985, dated 1986)
Where two headings read alike, the source gives them in different places.

Assays:
[1] = system: DNA synthesis in L-1210 Cells; test: inhibition of DNA synthesis in L1210 cells in vitro; format: cell-based; conditions: Mus musculus
Method: (§1) An in vitro test measured inhibition of DNA and RNA synthesis in L-1210 Cells in the method described by Tong, G., et al, J Med Chem (1976) 19:395. ED50 levels (the dose at which 50% inhibition occurs) were computed and ED50 ratios for DNA/RNA determined.
(§2) The compounds prepared in Examples 1-5 were tested for in vitro DNA and RNA synthesis inhibition activity and in vivo for ability to increase survival time in mice injected with P-388 leukemia cells as described above. The relative solubility in octanol and phosphate buffer, expressed as log10 p, was also determined, as well as the ΔTm of isolated helical DNA synthesized in the in vitro test.

[2] = system: RNA synthesis in L-1210 Cells; test: inhibition of RNA synthesis in L1210 cells in vitro; format: cell-based; conditions: Mus musculus
Method: as §1, §2

[3] = system: isolated helical DNA; test: ΔTm of isolated helical DNA; format: binding
Method: as §2

[4] = physchem; format: physicochemical; conditions: octanol-phosphate buffer, pH 7.4
Method: as §2

[5] = system: P-388 leukemia; test: survival time of mice injected with P-388 leukemia cells; format: in vivo; conditions: mouse P388, qd 1, 10 mg/kg; T/C = treated survival time/untreated survival time×100
Method: Survival times and % T/C (treated survival time/untreated survival time×100) were determined, as well as dosage levels required.
The relative solubility in octanol and phosphate buffer, expressed as log10 p, was also determined, as well as the ΔTm of isolated helical DNA synthesized in the in vitro test.

[6] = L1210 cells, DNA synthesis, ED50 = dose at which 50% inhibition occurs, read-out: L1210 cells inhib of synth, ED50, DNA
[7] = L1210 cells, RNA synthesis, ED50 = dose at which 50% inhibition occurs, read-out: L1210 cells inhib of synth, ED50, RNA
[8] = read-out: log10 p, octanol-phosphate buffer at pH 7.4
[9] = L1210, read-out: L1210 cells inhib of synth, ED50, DNA
[10] = L1210, read-out: L1210 cells inhib of synth, ED50, RNA

Row | Compound | IC50 [1, 6] [µM] | IC50 [2, 7] [µM] | ΔTm of isolated helical DNA [3] [°C] | logD [4, 8] | logD [4] | Mouse P388 qd 1, % T/C (mg/kg) [5] [% T/C] | IC50 [1, 9] [µM] | IC50 [2, 10] [µM]
1 | COc1cccc2c1C(=O)c1c(O)c3c(c(O)c1C2=O)C[C@@](O)(C(C)=O)C[C@@H]3O[C@H]1C[C@H](N)[C@H](O)[C@H](C)O1 [Daunorubicin, daunorubicin, reference compound] | 0.66 | 0.33 | 10.5 | 0.66 | – | – | – | –
2 | COc1cccc2c1C(=O)c1c(O)c3c(c(O)c1C2=O)C[C@@](O)(C(=O)CO)C[C@@H]3O[C@H]1C[C@H](N)[C@H](O)[C@H](C)O1 [Doxorubicin, doxorubicin, reference compound] | 1.6 | 0.58 | 12.8 | – | 0.07 | 258 | – | –
3 | COCC(C#N)N[C@H]1C[C@H](O[C@H]2C[C@](O)(C(C)=O)Cc3c(O)c4c(c(O)c32)C(=O)c2c(OC)cccc2C4=O)O[C@@H](C)[C@H]1O (stereo partly drawn) [N--(1-cyano-2-methoxy-ethyl)daunorubicin, N-(1-cyano-2-methoxyethyl)Dau] | – | – | – | 2.64 | – | – | 0.51 | 0.51
4 | COCC(C#N)N[C@H]1C[C@H](O[C@H]2C[C@](O)(C(=O)CO)Cc3c(O)c4c(c(O)c32)C(=O)c2c(OC)cccc2C4=O)O[C@@H](C)[C@H]1O (stereo partly drawn) [N--(1-cyano-2-methoxy-ethyl)doxorubicin, N-(1-cyano-2-methoxyethyl)doxorubicin] | – | – | 12.5 | – | – | – | 0.8 | 0.4
5 | COc1cccc2c1C(=O)c1c(O)c3c(c(O)c1C2=O)C[C@@](O)(C(C)=O)C[C@@H]3O[C@H]1C[C@H](NCC#N)[C@H](O)[C@H](C)O1 [N--(cyanomethyl)-daunorubicin, N-(cyanomethyl)daunorubicin] | – | – | 11.7 | – | – | – | 1.75 | 0.82
6 | COc1cccc2c1C(=O)c1c(O)c3c(c(O)c1C2=O)C[C@@](O)(C(=O)CO)C[C@@H]3O[C@H]1C[C@H](NCC#N)[C@H](O)[C@H](C)O1 [N--(cyanomethyl)-doxorubicin] | – | – | 13.9 | – | – | – | 1.2 | 0.29
